Reference: the NIST ThermoML archive (doi:10.1016/j.jct.2019.02.011)

Test: xn = mol fraction of the nth substance listed
Conditions: Liquid, Vibrating tube method

COC(=O)OC [dimethyl carbonate] + CO
Conditions | mass density [kg/m3]
303.15 K, 30000 kPa, x1 = 0.837 | 1060.13
303.15 K, 30000 kPa, x1 = 0.9093 | 1070.62
303.15 K, 30000 kPa, x1 = 0.9239 | 1072.65
303.15 K, 30000 kPa, x1 = 0.9575 | 1077.23
303.15 K, 30000 kPa, x1 = 0.9861 | 1081.06
303.15 K, 30000 kPa, x1 = 1 | 1082.9
303.15 K, 35000 kPa, x1 = 0.0253 | 825.6
303.15 K, 35000 kPa, x1 = 0.0503 | 839.12
303.15 K, 35000 kPa, x1 = 0.0745 | 851.58
303.15 K, 35000 kPa, x1 = 0.101 | 864.54
303.15 K, 35000 kPa, x1 = 0.1502 | 886.72
303.15 K, 35000 kPa, x1 = 0.2059 | 909.73
303.15 K, 35000 kPa, x1 = 0.25 | 926.34
303.15 K, 35000 kPa, x1 = 0.3004 | 943.76
303.15 K, 35000 kPa, x1 = 0.3426 | 957.21
303.15 K, 35000 kPa, x1 = 0.3984 | 973.63
303.15 K, 35000 kPa, x1 = 0.4514 | 987.95
303.15 K, 35000 kPa, x1 = 0.5054 | 1001.4
303.15 K, 35000 kPa, x1 = 0.5509 | 1011.94
303.15 K, 35000 kPa, x1 = 0.6002 | 1022.49
303.15 K, 35000 kPa, x1 = 0.6469 | 1031.7
303.15 K, 35000 kPa, x1 = 0.6993 | 1041.37
303.15 K, 35000 kPa, x1 = 0.7496 | 1050.01
303.15 K, 35000 kPa, x1 = 0.799 | 1058.05
303.15 K, 35000 kPa, x1 = 0.837 | 1063.82
303.15 K, 35000 kPa, x1 = 0.9093 | 1074.26
303.15 K, 35000 kPa, x1 = 0.9239 | 1076.3
303.15 K, 35000 kPa, x1 = 0.9575 | 1080.88
303.15 K, 35000 kPa, x1 = 0.9861 | 1084.71
303.15 K, 35000 kPa, x1 = 1 | 1086.6
303.15 K, 40000 kPa, x1 = 0.0253 | 829
303.15 K, 40000 kPa, x1 = 0.0503 | 842.54
303.15 K, 40000 kPa, x1 = 0.0745 | 855.01
303.15 K, 40000 kPa, x1 = 0.101 | 867.99
303.15 K, 40000 kPa, x1 = 0.1502 | 890.21
303.15 K, 40000 kPa, x1 = 0.2059 | 913.3
303.15 K, 40000 kPa, x1 = 0.25 | 929.93
303.15 K, 40000 kPa, x1 = 0.3004 | 947.37
303.15 K, 40000 kPa, x1 = 0.3426 | 960.84
303.15 K, 40000 kPa, x1 = 0.3984 | 977.28
303.15 K, 40000 kPa, x1 = 0.4514 | 991.62
303.15 K, 40000 kPa, x1 = 0.5054 | 1005.09
303.15 K, 40000 kPa, x1 = 0.5509 | 1015.64
303.15 K, 40000 kPa, x1 = 0.6002 | 1026.2
303.15 K, 40000 kPa, x1 = 0.6469 | 1035.43
303.15 K, 40000 kPa, x1 = 0.6993 | 1045.11
303.15 K, 40000 kPa, x1 = 0.7496 | 1053.76
303.15 K, 40000 kPa, x1 = 0.799 | 1061.82
303.15 K, 40000 kPa, x1 = 0.837 | 1067.59
303.15 K, 40000 kPa, x1 = 0.9093 | 1078.04
303.15 K, 40000 kPa, x1 = 0.9239 | 1080.08
303.15 K, 40000 kPa, x1 = 0.9575 | 1084.67
303.15 K, 40000 kPa, x1 = 0.9861 | 1088.51
303.15 K, 40000 kPa, x1 = 1 | 1090.4
308.15 K, 100 kPa, x1 = 0.0253 | 791.22
308.15 K, 100 kPa, x1 = 0.0503 | 804.54
308.15 K, 100 kPa, x1 = 0.0745 | 816.8
308.15 K, 100 kPa, x1 = 0.101 | 829.61
308.15 K, 100 kPa, x1 = 0.1502 | 851.5
308.15 K, 100 kPa, x1 = 0.2059 | 874.17
308.15 K, 100 kPa, x1 = 0.25 | 890.57
308.15 K, 100 kPa, x1 = 0.3004 | 907.81
308.15 K, 100 kPa, x1 = 0.3426 | 921.16
308.15 K, 100 kPa, x1 = 0.3984 | 937.46
308.15 K, 100 kPa, x1 = 0.4514 | 951.72
308.15 K, 100 kPa, x1 = 0.5054 | 965.11
308.15 K, 100 kPa, x1 = 0.5509 | 975.56
308.15 K, 100 kPa, x1 = 0.6002 | 986.01
308.15 K, 100 kPa, x1 = 0.6469 | 995.19
308.15 K, 100 kPa, x1 = 0.6993 | 1004.82
308.15 K, 100 kPa, x1 = 0.7496 | 1013.47
308.15 K, 100 kPa, x1 = 0.799 | 1021.43
308.15 K, 100 kPa, x1 = 0.837 | 1027.27
308.15 K, 100 kPa, x1 = 0.9093 | 1037.72
308.15 K, 100 kPa, x1 = 0.9239 | 1039.75
308.15 K, 100 kPa, x1 = 0.9575 | 1044.31
308.15 K, 100 kPa, x1 = 0.9861 | 1048.07
308.15 K, 100 kPa, x1 = 1 | 1049.91
308.15 K, 5000 kPa, x1 = 0.0253 | 795.98
308.15 K, 5000 kPa, x1 = 0.0503 | 809.3
308.15 K, 5000 kPa, x1 = 0.0745 | 821.56
308.15 K, 5000 kPa, x1 = 0.101 | 834.41
308.15 K, 5000 kPa, x1 = 0.1502 | 856.36
308.15 K, 5000 kPa, x1 = 0.2059 | 879.02
308.15 K, 5000 kPa, x1 = 0.25 | 895.46
308.15 K, 5000 kPa, x1 = 0.3004 | 912.71
308.15 K, 5000 kPa, x1 = 0.3426 | 926.05
308.15 K, 5000 kPa, x1 = 0.3984 | 942.41
308.15 K, 5000 kPa, x1 = 0.4514 | 956.66
308.15 K, 5000 kPa, x1 = 0.5054 | 970.05
308.15 K, 5000 kPa, x1 = 0.5509 | 980.5
308.15 K, 5000 kPa, x1 = 0.6002 | 990.95
308.15 K, 5000 kPa, x1 = 0.6469 | 1000.13
308.15 K, 5000 kPa, x1 = 0.6993 | 1009.76
308.15 K, 5000 kPa, x1 = 0.7496 | 1018.4
308.15 K, 5000 kPa, x1 = 0.799 | 1026.37
308.15 K, 5000 kPa, x1 = 0.837 | 1032.2
308.15 K, 5000 kPa, x1 = 0.9093 | 1042.65
308.15 K, 5000 kPa, x1 = 0.9239 | 1044.68
308.15 K, 5000 kPa, x1 = 0.9575 | 1049.24
308.15 K, 5000 kPa, x1 = 0.9861 | 1053
308.15 K, 5000 kPa, x1 = 1 | 1054.84
308.15 K, 10000 kPa, x1 = 0.0253 | 800.77
308.15 K, 10000 kPa, x1 = 0.0503 | 814.1
308.15 K, 10000 kPa, x1 = 0.0745 | 826.37
308.15 K, 10000 kPa, x1 = 0.101 | 839.23
308.15 K, 10000 kPa, x1 = 0.1502 | 861.2
308.15 K, 10000 kPa, x1 = 0.2059 | 883.88
308.15 K, 10000 kPa, x1 = 0.25 | 900.33
308.15 K, 10000 kPa, x1 = 0.3004 | 917.59
308.15 K, 10000 kPa, x1 = 0.3426 | 930.95
308.15 K, 10000 kPa, x1 = 0.3984 | 947.31
308.15 K, 10000 kPa, x1 = 0.4514 | 961.58
308.15 K, 10000 kPa, x1 = 0.5054 | 974.93
308.15 K, 10000 kPa, x1 = 0.5509 | 985.39
308.15 K, 10000 kPa, x1 = 0.6002 | 995.85
308.15 K, 10000 kPa, x1 = 0.6469 | 1005.03
308.15 K, 10000 kPa, x1 = 0.6993 | 1014.62
308.15 K, 10000 kPa, x1 = 0.7496 | 1023.27
308.15 K, 10000 kPa, x1 = 0.799 | 1031.19
308.15 K, 10000 kPa, x1 = 0.837 | 1037.04
308.15 K, 10000 kPa, x1 = 0.9093 | 1047.49
308.15 K, 10000 kPa, x1 = 0.9239 | 1049.52
308.15 K, 10000 kPa, x1 = 0.9575 | 1054.08
308.15 K, 10000 kPa, x1 = 0.9861 | 1057.85
308.15 K, 10000 kPa, x1 = 1 | 1059.69
308.15 K, 15000 kPa, x1 = 0.0253 | 805.37
308.15 K, 15000 kPa, x1 = 0.0503 | 818.7
308.15 K, 15000 kPa, x1 = 0.0745 | 831.02
308.15 K, 15000 kPa, x1 = 0.101 | 843.89
308.15 K, 15000 kPa, x1 = 0.1502 | 865.86
308.15 K, 15000 kPa, x1 = 0.2059 | 888.55
308.15 K, 15000 kPa, x1 = 0.25 | 905.01
308.15 K, 15000 kPa, x1 = 0.3004 | 922.27
308.15 K, 15000 kPa, x1 = 0.3426 | 935.63
